In PubChem BioAssay (NCI):
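GI50: concentration for 50% inhibition of growth. TGI: concentration producing complete growth inhibition.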

Assays:
Assay in all cases: NCI anticancer screen, dose series, 384-well format
[1] = test system: EKVX NSCLC
[2] = test system: UACC-62 melanoma
[3] = test system: NCI-H322M lung
[4] = test system: SF-539 CNS
[5] = test system: ACHN renal
[6] = test system: MDA-MB-468 breast
[7] = test system: NCI/ADR-RES ovarian
[8] = test system: HOP-92 NSCLC
[9] = test system: SK-OV-3 ovarian
[10] = test system: HOP-62 NSCLC
[11] = test system: MCF7 breast
[12] = test system: A549 NSCLC
[13] = test system: NCI-H460 NSCLC
[14] = test system: SR leukemia
[15] = test system: OVCAR-3 ovarian
[16] = test system: MDA-MB-435 melanoma
[17] = test system: UACC-257 melanoma
[18] = test system: SK-MEL-5 melanoma
[19] = test system: SK-MEL-28 melanoma
[20] = test system: NCI-H522 lung
[21] = test system: SF-268 CNS
[22] = test system: UO-31 renal
[23] = test system: A498 renal
[24] = test system: MDA-MB-231 breast
[25] = test system: COLO 205 colon
[26] = test system: RPMI-8226 leukemia
[27] = test system: SF-295 CNS
[28] = test system: HCT-15 colon
[29] = test system: M14 melanoma
[30] = test system: LOX IMVI melanoma
[31] = test system: CAKI-1 renal
[32] = test system: SNB-75 CNS
[33] = test system: TK-10 renal
[34] = test system: HCT-116 colon
[35] = test system: IGROV1 ovarian
[36] = test system: RXF 393 renal
[37] = test system: OVCAR-5 ovarian
[38] = test system: MALME-3M melanoma
[39] = test system: BT-549 breast
[40] = test system: SW-620 colon
[41] = test system: SN12C renal
[42] = test system: HT29 colon
[43] = test system: NCI-H226 lung
[44] = test system: 786-0 renal
[45] = test system: U251 glioblastoma
[46] = test system: DU-145 prostate
[47] = test system: SK-MEL-2 melanoma
[48] = test system: PC-3 prostate
[49] = test system: HCC-2998 colon
[50] = test system: OVCAR-4 ovarian
[51] = test system: T-47D breast
[52] = test system: OVCAR-8 ovarian
[53] = test system: SNB-19 CNS
[54] = test system: CCRF-CEM leukemia
[55] = test system: MOLT-4 leukemia
[56] = test system: KM12 colon
[57] = test system: NCI-H23 lung
[58] = test system: K-562 leukemia
[59] = test system: HL-60(TB) leukemia

CC(C)(C[C@H]1CN(S(=O)(=O)c2cccc(C(F)(F)F)c2)c2cc(-c3cc(F)cc(OC(F)F)c3)ccc2O1)C(=O)O
GI50 [1]: 10.7 µM | TGI [1]: 22.8 µM | GI50 [2]: 3.84 µM | TGI [2]: 13.6 µM | GI50 [3]: 12.6 µM | TGI [3]: 25.6 µM | GI50 [4]: 6 µM | TGI [4]: 18.4 µM | GI50 [5]: 13.4 µM | TGI [5]: 26.7 µM | GI50 [6]: 2.66 µM | TGI [6]: 7.31 µM | GI50 [7]: 2.52 µM | TGI [7]: 7.17 µM | GI50 [8]: 7.09 µM | TGI [8]: 20 µM | GI50 [9]: 9.09 µM | TGI [9]: 21.4 µM | GI50 [10]: 4.81 µM | TGI [10]: 16.7 µM | GI50 [11]: 4.82 µM | TGI [11]: 17.2 µM | GI50 [12]: 4.28 µM | TGI [12]: 15.5 µM | GI50 [13]: 4.04 µM | TGI [13]: 13 µM | GI50 [14]: 1.51 µM | TGI [14]: 2.9 µM | GI50 [15]: 2.46 µM | TGI [15]: 7.45 µM | GI50 [16]: 2.04 µM | TGI [16]: 4.48 µM | GI50 [17]: 8.84 µM | TGI [17]: 23.2 µM | GI50 [18]: 3.86 µM | TGI [18]: 13.5 µM | GI50 [19]: 7.37 µM | TGI [19]: 20.1 µM | GI50 [20]: 2.66 µM | TGI [20]: 7.35 µM | GI50 [21]: 9.85 µM | TGI [21]: 22.6 µM | GI50 [22]: 10.5 µM | TGI [22]: 22.3 µM | GI50 [23]: 4.35 µM | TGI [23]: 15.5 µM | GI50 [24]: 8.82 µM | TGI [24]: 21.4 µM | GI50 [25]: 5.83 µM | TGI [25]: 15.3 µM | GI50 [26]: 2.78 µM | TGI [26]: 6.15 µM | GI50 [27]: 3.02 µM | TGI [27]: 10.3 µM | GI50 [28]: 4.15 µM | TGI [28]: 14.1 µM | GI50 [29]: 4.53 µM | TGI [29]: 15.3 µM | GI50 [30]: 12.8 µM | TGI [30]: 25.4 µM | GI50 [31]: 6.92 µM | TGI [31]: 19 µM | GI50 [32]: 17.4 µM | TGI [32]: 31.2 µM | GI50 [33]: 10.6 µM | TGI [33]: 23.1 µM | GI50 [34]: 7.93 µM | TGI [34]: 20.5 µM | GI50 [35]: 7.94 µM | TGI [35]: 20.9 µM | GI50 [36]: 4.02 µM | TGI [36]: 11.1 µM | GI50 [37]: 16.3 µM | TGI [37]: 29.9 µM | GI50 [38]: 11.5 µM | TGI [38]: 24.5 µM | GI50 [39]: 2.8 µM | TGI [39]: 9.11 µM | GI50 [40]: 2.92 µM | TGI [40]: 7.59 µM | GI50 [41]: 10.3 µM | TGI [41]: 22.4 µM | GI50 [42]: 3.97 µM | TGI [42]: 13.6 µM | GI50 [43]: 8.64 µM | TGI [43]: 22 µM | GI50 [44]: 9.51 µM | TGI [44]: 22.8 µM | GI50 [45]: 7.65 µM | TGI [45]: 20.2 µM | GI50 [46]: 10.1 µM | TGI [46]: 21.9 µM | GI50 [47]: 2.73 µM | TGI [47]: 7.34 µM | GI50 [48]: 8.44 µM | TGI [48]: 20.8 µM | GI50 [49]: 6.63 µM | TGI [49]: 20.7 µM | GI50 [50]: 9.12 µM | TGI [50]: 21.5 µM | GI50 [51]: 5.89 µM | TGI [51]: 18.9 µM | GI50 [52]: 9.79 µM | TGI [52]: 22.1 µM | GI50 [53]: 8.54 µM | TGI [53]: 20.5 µM | GI50 [54]: 6.52 µM | TGI [54]: 18.4 µM | GI50 [55]: 3.11 µM | TGI [55]: 8.3 µM | GI50 [56]: 4.06 µM | TGI [56]: 14.4 µM | GI50 [57]: 3.38 µM | TGI [57]: 10.7 µM | GI50 [58]: 3.18 µM | TGI [58]: 12.1 µM | GI50 [59]: 2.74 µM | TGI [59]: 4.91 µM
